Laboratory results taken from the supplement of paper PMC13380429.
± gives the standard deviation of the averaged measurements.

Tests used:
Settings in all cases: 72 h
HepG2 [1] = experiment: cell viability relative to DMSO; higher = less toxic
Vero E6 [2] = experiment: as above
U2OS [3] = experiment: as above
Calu-3 [4] = experiment: as above
Caco-2 [5] = experiment: as above
HepG2 [6] = experiment: relative viability EC50 (midpoint between 100% and the lowest measured viability); higher = less toxic
Vero E6 [7] = experiment: as above
U2OS [8] = experiment: as above
Calu-3 [9] = experiment: as above
Caco-2 [10] = experiment: as above
HepG2 [11] = experiment: drug sensitivity score (DSS) for viability; higher = more toxic; extreme values may be limits of the assay
Vero E6 [12] = experiment: as above
U2OS [13] = experiment: as above
Calu-3 [14] = experiment: as above
Caco-2 [15] = experiment: as above

| SMILES | cell viability (HepG2 [1]; 1 nM) | cell viability (HepG2 [1]; 10 nM) | cell viability (HepG2 [1]; 100 nM) | cell viability (HepG2 [1]; 1000 nM) | cell viability (HepG2 [1]; 10000 nM) | cell viability (Vero E6 [2]; 1 nM) | cell viability (Vero E6 [2]; 10 nM) | cell viability (Vero E6 [2]; 100 nM) | cell viability (Vero E6 [2]; 1000 nM) | cell viability (Vero E6 [2]; 10000 nM) | cell viability (U2OS [3]; 1 nM) | cell viability (U2OS [3]; 10 nM) | cell viability (U2OS [3]; 100 nM) | cell viability (U2OS [3]; 1000 nM) | cell viability (U2OS [3]; 10000 nM) | cell viability (Calu-3 [4]; 1 nM) | cell viability (Calu-3 [4]; 10 nM) | cell viability (Calu-3 [4]; 100 nM) | cell viability (Calu-3 [4]; 1000 nM) | cell viability (Calu-3 [4]; 10000 nM) | cell viability (Caco-2 [5]; 1 nM) | cell viability (Caco-2 [5]; 10 nM) | cell viability (Caco-2 [5]; 100 nM) | cell viability (Caco-2 [5]; 1000 nM) | cell viability (Caco-2 [5]; 10000 nM) | relative viability EC50 (HepG2 [6]) | relative viability EC50 (Vero E6 [7]) | relative viability EC50 (U2OS [8]) | relative viability EC50 (Calu-3 [9]) | relative viability EC50 (Caco-2 [10]) | drug sensitivity score (HepG2 [11]) | drug sensitivity score (Vero E6 [12]) | drug sensitivity score (U2OS [13]) | drug sensitivity score (Calu-3 [14]) | drug sensitivity score (Caco-2 [15]) |
| --- | --- | --- | --- | --- | --- | --- | --- | --- | --- | --- | --- | --- | --- | --- | --- | --- | --- | --- | --- | --- | --- | --- | --- | --- | --- | --- | --- | --- | --- | --- | --- | --- | --- | --- | --- |
| CCOCCOc1ccccc1C(N)=O [etosalamide] | 111% | 104% | 86.7% | 101% | 92.3% | 104% | 93.7% | 93.3% | 95.4% | 96.1% | 102% | 99.9% | 102% | 101% | 97.7% | 102% | 90.5% | 97.6% | 101% | 98.7% | 91.3% | 89.5% | 108% | 97.9% | 100% | > 10 µM | > 10 µM | > 10 µM | > 10 µM | > 10 µM | 0 | 0 | 0 | 0 | 0 |
| COc1ccc(-c2cc(=O)c3c(O)c(OC)c(O)cc3o2)cc1OC [eupatilin] | 94.2% | 99% | 85.9% | 99.5% | 90.1% | 99.6% | 102% | 97.2% | 97.3% | 97.8% | 105% | 97.3% | 102% | 99.7% | 101% | 92.2% | 101% | 92.6% | 93.9% | 78.5% | 98.3% | 94.8% | 94.7% | 96.9% | 92.9% | > 10 µM | > 10 µM | > 10 µM | > 10 µM | > 10 µM | 0 | 0 | 0 | 0.9 | 0 |
| Cn1cc([S+](C)[O-])c(=O)c2ccc(F)cc21 (stereo not given) [flosequinan] | 103% | 97.9% | 97% | 95.4% | 86.9% | 97.5% | 97.7% | 98.8% | 96.3% | 96.4% | 104% | 95.3% | 98.5% | 99% | 102% | 98.6% | 95.5% | 99.6% | 101% | 110% | 110% | 95.3% | 107% | 102% | 95.7% | > 10 µM | > 10 µM | > 10 µM | > 10 µM | > 10 µM | 0.1 | 0 | 0 | 0 | 0 |
| O=C(O)c1ccccc1Nc1cccc(C(F)(F)F)c1 [flufenamic-acid] | 93.7% | 103% | 101% | 102% | 101% | 104% | 94.2% | 100% | 96% | 95.8% | 98.5% | 98.1% | 95.5% | 97.5% | 100% | 101% | 108% | 95.9% | 112% | 92.2% | 93.5% | 96.3% | 85.4% | 101% | 96.2% | > 10 µM | > 10 µM | > 10 µM | > 10 µM | > 10 µM | 0 | 0 | 0 | 0 | 0 |
| CCOC(=O)c1ncn2c1CN(C)C(=O)c1cc(F)ccc1-2 [flumazenil] | 97.8% | 95% | 97.8% | 90.7% | 95.6% | 102% | 97.2% | 100% | 95.4% | 98.8% | 99.2% | 103% | 97.3% | 103% | 97.8% | 89.2% | 87.6% | 87.1% | 90.8% | 87% | 95.2% | 99.6% | 99.1% | 102% | 105% | > 10 µM | > 10 µM | > 10 µM | > 10 µM | > 10 µM | 0 | 0 | 0 | 0 | 0 |
| C[C@H]1NCc2cc(-c3ccc4c(=O)c(C(=O)O)cn(C5CC5)c4c3OC(F)F)ccc21 [garenoxacin] | 95.2% | 97.4% | 92.3% | 109% | 99% | 85.3% | 97% | 85.4% | 91.7% | 104% | 102% | 96.3% | 99.2% | 98% | 99.7% | 107% | 92.3% | 105% | 106% | 104% | 96.1% | 91.2% | 102% | 95.9% | 98.6% | > 10 µM | > 10 µM | > 10 µM | > 10 µM | > 10 µM | 0 | 0 | 0 | 0 | 0 |
| COC(=O)C1=CO[C@@H](O)[C@@H]2C(CO)=CC[C@H]12 [genipin] | 87.6% | 105% | 103% | 106% | 113% | 90.1% | 101% | 95.7% | 99.5% | 106% | 93.8% | 94.3% | 99.7% | 92.8% | 100% | 88% | 92.8% | 83.6% | 85.1% | 87% | 91.6% | 96.1% | 102% | 96.8% | 88.5% | > 10 µM | > 10 µM | > 10 µM | > 10 µM | > 10 µM | 0 | 0 | 0 | 2.4 | 0.1 |
| CC[n+]1c(-c2ccccc2)c2cc(N)ccc2c2ccc(N)cc21 [homidium] | 107% | 101% | 88% | 64.5% | 35.7% | 92.8% | 100% | 90.5% | 94.5% | 85.3% | 97.1% | 96% | 98.4% | 87.8% | 39.2% | 103% | 98.9% | 93% | 97.7% | 26.4% | 95.9% | 93.2% | 87.2% | 55.4% | 4.5% | 0.679 µM | > 10 µM | 1.74 µM | 2.94 µM | 0.984 µM | 8.1 | 0.1 | 5.3 | 4.4 | 10.7 |
| CC(C)Cc1ccc(C(C)C(=O)O)cc1 (stereo not given) [ibuprofen] | 110 ± 5.8% | 96.3 ± 1.8% | 104 ± 8.1% | 102 ± 5.4% | 108 ± 9.9% | 96.9 ± 0.57% | 96.9 ± 2.5% | 94.95 ± 0.071% | 92.2 ± 2.9% | 104.25 ± 0.071% | 99.7 ± 3.4% | 103 ± 4.4% | 100.6 ± 0.96% | 102 ± 2.5% | 105 ± 2.5% | 105 ± 5.7% | 98.9 ± 6.4% | 93 ± 1.3% | 94.6 ± 8.3% | 102 ± 7.8% | 97.4 ± 5.4% | 98.1 ± 3.7% | 95.9 ± 2% | 103 ± 4.1% | 104 ± 3.2% | > 10 µM | > 10 µM | > 10 µM | > 10 µM | > 10 µM | 0 | 0 | 0 | 0 | 0 |
| O=C(NC1CCN(CCc2c[nH]c3ccccc23)CC1)c1ccccc1 [indoramin] | 100% | 92.9% | 105% | 98.9% | 95.9% | 96.7% | 94.4% | 98.7% | 99.7% | 102% | 95.3% | 99.3% | 97.5% | 104% | 100% | 90.4% | 92.8% | 103% | 101% | 107% | 89.4% | 98.2% | 101% | 101% | 99.5% | > 10 µM | > 10 µM | > 10 µM | > 10 µM | > 10 µM | 0 | 0 | 0 | 0 | 0 |
| O=C(O)CSc1nnc(Br)n1-c1ccc(C2CC2)c2ccccc12 [lesinurad] | 98.8% | 102% | 99.4% | 84.8% | 99.7% | 99.4% | 100% | 99.9% | 102% | 99.5% | 99.6% | 103% | 95.2% | 95.9% | 96.3% | 99% | 101% | 106% | 95.5% | 102% | 98.4% | 90.9% | 91.4% | 94% | 99.7% | > 10 µM | > 10 µM | > 10 µM | > 10 µM | > 10 µM | 0 | 0 | 0 | 0 | 0 |
| Nc1nc(=O)c2c([nH]1)NCC(CNc1ccc(C(=O)N[C@@H](CCC(=O)O)C(=O)O)cc1)N2C=O (stereo not given in full) [leucovorin] | 116% | 96.5% | 100% | 108% | 97.5% | 101 ± 3.2% | 98.2 ± 5.1% | 104 ± 1.4% | 97.2 ± 2% | 101 ± 6.8% | 108% | 98.9% | 98.1% | 95.6% | 99.2% | 103 ± 15% | 96.9 ± 7.9% | 97.45 ± 0.78% | 99.3 ± 1.7% | 105 ± 7.5% | 92 ± 1.3% | 94.5 ± 6.2% | 89.6 ± 2.3% | 100.3 ± 0.92% | 100 ± 2% | > 10 µM | > 10 µM | > 10 µM | > 10 µM | > 10 µM | 0 | 0 | 0 | 0 | 0 |
| NC(=O)N1c2ccccc2CC(O)c2ccccc21 (stereo not given) [licarbazepine] | 96.3% | 96.4% | 93.5% | 108% | 99% | 101% | 102% | 104% | 97.6% | 97.8% | 108% | 97.5% | 98.8% | 101% | 102% | 98.3% | 99.9% | 96.3% | 105% | 92.1% | 98.3% | 99.5% | 97.8% | 100% | 91.5% | > 10 µM | > 10 µM | > 10 µM | > 10 µM | > 10 µM | 0 | 0 | 0 | 0 | 0 |
| CN1C(C(=O)Nc2ccccn2)=C(O)c2sc(Cl)cc2S1(=O)=O [lornoxicam] | 91.1% | 104% | 100% | 104% | 97.4% | 92.4% | 98.8% | 94.8% | 97.1% | 91.3% | 100% | 93.8% | 102% | 94.7% | 100% | 95.3% | 100% | 107% | 99.8% | 104% | 110% | 95% | 99.9% | 86.6% | 95.5% | > 10 µM | > 10 µM | > 10 µM | > 10 µM | > 10 µM | 0 | 0 | 0 | 0 | 0 |
